Results published in patent US20170354148A1, “SAFENED HERBICIDAL COMPOSITIONS CONTAINING HALAUXIFEN AND METHODS OF USE THEREOF IN BRASSICA SPECIES” (Dow AgroSciences LLC, priority 2016, published 2017).

Legend:
[1] = test system: Aparima Gold swede (Brassica sp., BRSSS); test: Example 2 field trials (Canterbury, New Zealand), postemergence crop safety, visual phytotoxicity
[2] = test system: Aparima Gold swede (Brassica sp., BRSSS); test: Example 1 pot trials, postemergence crop safety, visual phytotoxicity

COC(=O)c1nc(-c2ccc(Cl)c(OC)c2F)cc(N)c1Cl [Halauxifen-methyl, methyl 4-amino-3-chloro-6-(4-chloro-2-fluoro-3-methoxyphenyl)-2-pyridineccarboxylate]
Mean % Visual Growth Inhibition ([1]; 22DAA1, 7.5 g ae/ha): 25.0%
Mean % Visual Injury ([1]; 22DAA1, 7.5 g ae/ha): 32.5%
Mean % Visual Growth Inhibition ([1]; 28DAA1, 3.75 g ae/ha): 15.0%
Mean % Visual Injury ([1]; 28DAA1, 3.75 g ae/ha): 10.0%
Mean % Visual Growth Inhibition ([1]; 28DAA1, 7.5 g ae/ha): 22.5%
Mean % Visual Injury ([1]; 28DAA1, 7.5 g ae/ha): 27.5%
Mean % Visual Growth Inhibition ([1]; 56DAA1, 7.5 g ae/ha): 23.8%
Mean % Visual Injury ([2]; 3DAA1, 15 g ae/ha): 14.4%
Mean % Visual Injury ([2]; 7DAA1, 15 g ae/ha): 16.2%
Mean % Visual Injury ([2]; 15DAA1, 15 g ae/ha): 16.2%
Mean % Visual Injury ([2]; 28DAA1, 15 g ae/ha): 39.0%
